From PubChem BioAssay (NCI)
“And” between values parts separate entries of the source, which are not always exact repeats. Equal entries are not always repeated.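 Growth conditions: 96-well plates. Treatment: test compound, 48 hours, 5 concentrations. Analysis: linear interpolation between bracketing concentrations; unreached endpoints set to highest concentration. At the GI50, growth is halved. TGI denotes the concentration required for complete inhibition of growth.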

How the values were obtained:
Assay in all cases: inhibition of tumour cell growth, NCI panel, 48 h
MOLT-4 leukemia = tested on: MOLT-4 leukemia
HCT-15 colon = tested on: HCT-15 colon
SR leukemia = tested on: SR leukemia
UACC-257 melanoma = tested on: UACC-257 melanoma
ACHN renal = tested on: ACHN renal
SK-MEL-28 melanoma = tested on: SK-MEL-28 melanoma
K-562 leukemia = tested on: K-562 leukemia
OVCAR-4 ovarian = tested on: OVCAR-4 ovarian
OVCAR-5 ovarian = tested on: OVCAR-5 ovarian
CAKI-1 renal = tested on: CAKI-1 renal

| Compound | GI50 (MOLT-4 leukemia) [µM] | TGI (MOLT-4 leukemia) | GI50 (HCT-15 colon) [µM] | TGI (HCT-15 colon) | GI50 (SR leukemia) [µM] | TGI (SR leukemia) [µM] | GI50 (UACC-257 melanoma) [µM] | TGI (UACC-257 melanoma) [µM] | GI50 (ACHN renal) [µM] | TGI (ACHN renal) | GI50 (SK-MEL-28 melanoma) [µM] | TGI (SK-MEL-28 melanoma) | GI50 (K-562 leukemia) [µM] | TGI (K-562 leukemia) | GI50 (OVCAR-4 ovarian) [µM] | TGI (OVCAR-4 ovarian) | GI50 (OVCAR-5 ovarian) [µM] | TGI (OVCAR-5 ovarian) [µM] | GI50 (CAKI-1 renal) | TGI (CAKI-1 renal) |
| --- | --- | --- | --- | --- | --- | --- | --- | --- | --- | --- | --- | --- | --- | --- | --- | --- | --- | --- | --- | --- |
| CCOC(=O)c1sc(=S)c2c(C(=O)OCC)c(C(=O)OCC)sc2c1C(=O)OCC | 15.9 | 42.3 µM | 14.4 | 28.5 µM | 15 | 35.4 | 15.1 | 39 | 16.6 | 39.4 µM | 21.3 | 54.7 µM | 10.6 | 25.1 µM | 20.7 | 56.9 µM | 17.6 | 35.7 | 26.5 µM | 93.9 µM |
| COc1ccc([N+](=O)[O-])c(S(=O)(=O)c2ccc(Cl)cc2)n1 | 3.59 | > 100 µM | 2.05 | 5.22 µM | 3 | > 100 | 11.3 | 23.7 | 2.08 | 4.11 µM | 3.57 | 14.2 µM | 3.02 | > 100 µM | 2.32 | 6.51 µM | 3.13 | 12.3 | 1.61 µM | 3.01 µM |
| COc1ccc(-c2nc(-c3nc4ccc(OC)cc4[nH]3)cc3c2[nH]c2ccccc23)cc1 | 1.98 | > 100 µM | 2.88 | > 100 µM | 4.29 | > 100 | 4.34 | > 100 | 2.33 | > 100 µM | > 100 | > 100 µM | 1.52 | > 100 µM | > 100 | > 100 µM | > 100 | > 100 | 6.07 µM | > 100 µM |
| Cc1ccc(C)c(-c2csc(Nc3ccc(C)c(C)c3)n2)c1 | > 100 | > 100 µM | 4.08 | > 100 µM | > 100 | > 100 | > 100 | > 100 | 82.2 | > 100 µM | > 100 | > 100 µM | > 100 | > 100 µM | 48.3 | > 100 µM | > 100 | > 100 | > 100 µM | > 100 µM |
| CC12CCC[C@@](C)(C(=O)OC3OC(CO)C(O)C(O)C3O)[C@H]1CCC13CC4CC(OC4(CO)[C@H]1O)[C@@H]23 (stereo not given in full) | – | > 100 µM | – | > 100 µM | – | > 100 | – | > 100 | – | > 100 µM | – | > 100 µM | – | > 100 µM | – | > 100 µM | – | > 100 | – | > 100 µM |
| O=[N+]([O-])c1nccn1COCCF | – | > 100 µM | – | > 100 µM | – | > 100 | – | > 100 | – | > 100 µM | – | > 100 µM | – | > 100 µM | – | > 100 µM | – | > 100 | – | > 100 µM |
| C[C@@]12CCC(=O)C=C1CC[C@H]1C2=CC[C@]2(C)C1CC[C@@]2(C)O (stereo not given in full) | – | > 100 µM | – | > 100 µM | – | > 100 | – | > 100 | – | > 100 µM | – | > 100 µM | – | > 100 µM | – | > 100 µM | – | > 100 | – | > 100 µM |
| N#Cc1ccnc(N2C(=O)CC[C@H]2C(=O)N(c2cncc(F)c2)[C@H](C(=O)NC2CC(F)(F)C2)c2ccccc2Cl)c1 | 30.5 | > 100 µM | 88.6 | > 100 µM | 62.5 | > 100 | > 100 | > 100 | > 100 | > 100 µM | > 100 | > 100 µM | > 100 | > 100 µM | 39.1 | > 100 µM | > 100 | > 100 | > 100 µM | > 100 µM |
| O=c1c2ccccc2c2nc3ccccc3nc2n1C1CCCCC1 | – | > 100 µM | – | > 100 µM | – | > 100 | – | > 100 | – | > 100 µM | – | > 100 µM | – | > 100 µM | – | > 100 µM | – | > 100 | – | > 100 µM |
| CS(=O)(=O)Nc1ccc(Nc2c3ccccc3nc3ccccc23)cc1 | – | 10.4 µM | – | 23.5 µM | – | 3.83 | – | 8.44 | – | 2.69 µM | – | 20.7 µM | – | 21.2 µM | – | 17.4 µM | – | 21 | – | 6.94 µM |
| CC1=C(C(=O)Nc2ccc(Cl)c(Cl)c2)C(c2ccco2)C(C(=O)Nc2ccc(Cl)c(Cl)c2)=C(C)N1 | – | 48 µM | – | 24.3 µM | – | 32 | – | 28.5 | – | 18.2 µM | – | 25.3 µM | – | 29 µM | – | 24.6 µM | – | 29.3 | – | 27.8 µM |
| CSc1nc2sc3cc(Cl)ccc3n2c(=N)c1C#N | 2.2 | > 23.6 µM | > 100 | > 100 µM | 17.6 | > 100 | 6.05 | > 100 | > 62.2 | > 100 µM | 11.6 | > 100 µM | > 52.4 | > 100 µM | 8.9 | > 100 µM | > 62.7 | > 100 | 17.1 µM | 88.2 µM |
| CC(=O)N=c1ccc2nc3c(cc(N)c4ccccc43)oc-2c1 | 0.353 | 5.26 µM | 0.935 | 2.5 µM | 1.67 | > 21.2 | 0.467 | 1.91 | 1.34 | 2.62 µM | 1.75 | 3.26 µM | 0.389 | – | 0.409 | 1.64 µM | 1.8 | 3.94 | 1.55 µM | 3.17 µM |
| CC1=C(C(=O)NCc2ccccc2)C(c2ccccc2[N+](=O)[O-])C(C(=O)NCc2ccccc2)=C(C)N1 | – | 50.5 µM | – | 22.4 µM | – | 35.8 | – | 29.4 | – | 27.4 µM | – | 26 µM | – | 24.8 µM | – | 22.9 µM | – | 36.6 | – | 50 µM |
| C=C1C(=O)O[C@H]2[C@H]1CC/C(COC(=O)NCc1c[nH]c3ccc(Cl)cc13)=C\CC[C@@]1(C)O[C@@H]21 | 1.34 | 4.91 µM | 0.615 | 1.95 µM | 0.357 | 3.88 | 1.63 | 3.11 | 1.33 | 2.61 µM | 1.69 | 3.29 µM | 0.416 | 2.02 µM | 1.45 | 3.16 µM | 1.77 | 4.01 | 1.45 µM | 2.81 µM |
| NS(=O)(=O)c1ccc(N2N=C3c4ccccc4CC3C2c2ccc(Cl)cc2)cc1 (stereo not given) | 7.58 | > 100 µM | 18.2 | 38.3 µM | 2.19 | > 100 | 11.4 | 32.6 | 17.5 | 31.6 µM | 10 | 28.7 µM | 10.6 | > 100 µM | 9.77 | 30.6 µM | 15.9 | 56.5 | 18.2 µM | 32.8 µM |
| NC1=N/C(=C2/CCNC(=O)c3[nH]c(Br)cc32)C(=O)N1 | – | > 52.6 µM | – | > 100 µM | – | 2.25 | – | > 100 | – | > 100 µM | – | > 100 µM | – | > 100 µM | – | 46.4 µM and 40.5 µM | – | > 100 | > 33.9 µM and 5.68 µM | > 100 µM |
| CC(C)=CC(=O)Cc1nc2cc(C)c(C)cc2[nH]c1=O | – | > 100 µM | – | > 100 µM | – | > 100 | – | > 100 | – | > 100 µM | – | > 100 µM | – | > 100 µM | – | > 100 µM | – | > 100 | – | > 100 µM |
| CC1OC(OCC2COC(O)(Oc3c(-c4ccc(O)c(O)c4)oc4cc(O)cc(O)c4c3=O)C(O)C2O)C(O)C(O)C1O (stereo not given) | – | > 100 µM | – | > 100 µM | – | > 100 | – | > 100 | – | > 100 µM | – | > 100 µM | – | > 100 µM | – | > 100 µM | – | > 100 | – | > 100 µM |
| CO[C@@H]1[C@H](OC(=O)NC(=O)CCl)CC[C@]2(CO2)[C@H]1[C@@]1(C)O[C@@H]1CC=C(C)C | 3.31 | 28.2 µM and 8.2 µM | 5.15 | 56.1 µM and 35.7 µM | 6.76 | 39.4 | 8.41 | 28 | 7.3 | 30.8 µM and 37.5 µM | 18.9 | 32.8 µM and 47.9 µM | 32.7 | 58.5 µM and 129 µM | 25.9 | 39.1 µM and 176 µM | 3.44 | 35.2 | 29.6 µM | 25.7 µM and 59.1 µM |
| CC(C)(C)c1ccc(C(O)c2ccc(C(C)(C)C)cc2)cc1 | – | 39.2 µM | – | 24.6 µM | – | 41.7 | – | 34 | – | 30.2 µM | – | 30.8 µM | – | 33.3 µM | – | 28.5 µM | – | 30.5 | – | 28.4 µM |
| Cn1cc(C2=C(c3cn(CCN)c4ccccc34)C(=O)NC2=O)c2ccccc21 | 6.48 | 19.9 µM | 6.79 | > 25 µM | 4.8 | 17 | 6.17 | 15.2 | 5.47 | > 25 µM | 7.68 | > 25 µM | 8.4 | > 25 µM | 5.66 | > 21.2 µM | 10.8 | > 25 | 4.18 µM | 24.5 µM |
| Cc1ccc(C)c(NC(=O)CC/C(=N\NC(=O)C(N)=O)C(C)C(=O)c2ccc(O)cc2)c1 (stereo not given) | – | > 100 µM | – | > 100 µM | – | > 100 | – | > 100 | – | > 100 µM | – | > 100 µM | – | > 100 µM | – | > 100 µM | – | > 100 | – | > 100 µM |
